{
  "source": "patent US20230091170A1",
  "about": "“ENRICHMENT OF ANTIGEN-SPECIFIC ANTIBODIES FOR ANALYTIC AND THERAPEUTIC USE” (priority 2020, published 2023)",
  "origin": "cited, not measured here",
  "note": "Where two headings read alike, the source gives them in different places.",
  "data": [
    {"compound": "O=C(O)CCCC[C@@H]1SC[C@@H]2NC(=O)N[C@@H]21", "note": "[Biotin]", "values": [
      {"measurement": "Serum concentration of biotin", "setting": "after a single dose of 300 mg biotin", "result": "up to 1160 ng/mL"},
      {"measurement": "Normal circulating concentrations of biotin", "setting": "derived from the diet and normal metabolism", "result": "< 1.2", "unit": "ng/mL"},
      {"measurement": "Serum concentration of biotin", "setting": "within the first hour after ingestion, supplements of 20 mg biotin per day", "result": "up to 355 ng/mL"}
    ]}
  ]
}
